Source: patent US10800792B2, “Inhibitors of Bruton's tyrosine kinase and method of their use” (JANSSEN PHARMACEUTICA NV, priority 2015, dated 2020)

Each compound was assayed against unphosphorylated-BTK kinase domain (UP-BTK), GST-tagged human BTK (389-659aa) (Homo sapiens (Human), UniProt Q06187) (assay: BTK kinase Lanthascreen binding assay). Details: Lanthascreen tracer competition, 60 minutes incubation; pIC50 = negative log of the IC50 in molar.
unphosphorylated-BTK kinase domain (UP-BTK), GST-tagged human BTK (389-659aa), sequence (Q06187 389-659): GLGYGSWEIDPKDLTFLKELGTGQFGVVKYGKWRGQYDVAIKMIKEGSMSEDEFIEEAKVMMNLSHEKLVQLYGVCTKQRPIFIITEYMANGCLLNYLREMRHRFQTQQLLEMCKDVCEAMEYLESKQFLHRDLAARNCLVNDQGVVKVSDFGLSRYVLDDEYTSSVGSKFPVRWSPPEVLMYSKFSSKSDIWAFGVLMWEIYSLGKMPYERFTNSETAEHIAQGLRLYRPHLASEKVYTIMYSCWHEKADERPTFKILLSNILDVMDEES
Procedure, shortened: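 Lanthascreen competition binding; test compound vs fluorescent tracer on unphosphorylated BTK. Output: pIC50 (−log IC50, M).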
In the case of `Cc1cc(OCC(C)C)ncc1N1C(=O)Nc2c(C(=O)N[C@@H]3CCCNC3)sc3nccc1c23` (single isomer, unassigned) [Example 760, (R)-5-(*R)-(6-Isobutoxy-4-methylpyridin-3-yl)-4-oxo-N-(piperidin-3-yl)-4,5-dihydro-3H-1-thia-3,5,8-triazaacenaphthylene-2-carboxamide], the “BTK_I_binding pIC50” value is reported as <6. In the case of `CC(C)Cc1ccc(N2C(=O)Nc3c(C(=O)N[C@@H]4CCCNC4)sc4nccc2c34)cc1` [Example 754, (R)-5-(4-Isobutylphenyl)-4-oxo-N-(piperidin-3-yl)-4,5-dihydro-3H-1-thia-3,5,8-triazaacenaphthylene-2-carboxamide], the “BTK_I_binding pIC50” value is reported as <6. With `COCCC(=O)N1CCC[C@@H](NC(=O)c2sc3nccc4c3c2NC(=O)N4c2ccc(Oc3ccccc3)cc2C)C1` [Example 841, (R)—N-(1-(3-Methoxypropanoyl)piperidin-3-yl)-5-(2-methyl-4-phenoxyphenyl)-4-oxo-4,5-dihydro-3H-1-thia-3,5,8-triazaacenaphthylene-2-carboxamide] the “BTK_I_binding pIC50” value was 7.7. With `Cc1cc(Oc2ccccc2)ccc1N1C(=O)Nc2c(C(=O)N[C@@H]3CCN(C(=O)/C(C#N)=C/C(C)(C)C)C3)sc3nccc1c23` [Example 868, (R,E)-N-(1-(2-Cyano-4,4-dimethylpent-2-enoyl)pyrrolidin-3-yl)-5-(2-methyl-4-phenoxyphenyl)-4-oxo-4,5-dihydro-3H-1-thia-3,5,8-triazaacenaphthylene-2-carboxamide] the “BTK_I_binding pIC50” value was 7.3. In the case of `C=CC(=O)N1CCC[C@@H](NC(=O)c2sc3nccc4c3c2NC(=O)N4c2cnc(OC3CCCC3)cc2C)C1` (single isomer, unassigned) [Example 769, (R)—N-(1-Acryloylpiperidin-3-yl)-5-(*R)-(6-(cyclopentyloxy)-4-methylpyridin-3-yl)-4-oxo-4,5-dihydro-3H-1-thia-3,5,8-triazaacenaphthylene-2-carboxamide], the “BTK_I_binding pIC50” value is reported as 6.2. With `C=CC(=O)N1CCC[C@@H](NC(=O)c2sc3nccc4c3c2NC(=O)N4c2ccnc(C3CCCC3)c2)C1` [Example 692, (R)—N-(1-Acryloylpiperidin-3-yl)-5-(2-cyclopentylpyridin-4-yl)-4-oxo-4,5-dihydro-3H-1-thia-3,5,8-triazaacenaphthylene-2-carboxamide] the “BTK_I_binding pIC50” value was 8.0. In the case of `C=CC(=O)N1CCC[C@@H](NC(=O)c2sc3nccc4c3c2NC(=O)N4c2ccc(OC3CCC3)cc2C)C1` (single isomer, unassigned) [Example 609, (R)—N-(1-Acryloylpiperidin-3-yl)-5-(*S)-(4-cyclobutoxy-2-methylphenyl)-4-oxo-4,5-dihydro-3H-1-thia-3,5,8-triazaacenaphthylene-2-carboxamide], the “BTK_I_binding pIC50” value is reported as 6.3. `C=CC(=O)N1C[C@@H](O)[C@@H](NC(=O)c2sc3nccc4c3c2NC(=O)N4c2ccnc(-c3ccccc3)c2)C1` [Example 718, N-((3S,4R)-1-Acryloyl-4-hydroxypyrrolidin-3-yl)-4-oxo-5-(2-phenylpyridin-4-yl)-4,5-dihydro-3H-1-thia-3,5,8-triazaacenaphthylene-2-carboxamide] was tested, and the “BTK_I_binding pIC50” value was 6.3.

Same assay, conditions: Lanthascreen tracer competition, 60 minutes incubation; pIC50 = negative log of the IC50 in molar; read-out: BTK_I_binding pIC50 (converted)
`C=CC(=O)N1CCCC(C(=O)Nc2sc3nccc4c3c2NC(=O)N4c2ccc(Oc3ccccc3)cc2C)C1` (centres unmarked) [Example 788, 1-Acryloyl-N-(5-(2-methyl-4-phenoxyphenyl)-4-oxo-4,5-dihydro-3H-1-thia-3,5,8-triazaacenaphthylen-2-yl)piperidine-3-carboxamide] showed an IC50 of 0.2 µM. With `C=CC(=O)N1CC[C@@H](NC(=O)c2sc3nccc4c3c2NC(=O)N4c2ccc(Oc3ccccc3)cn2)C1` [Example 698, (R)—N-(1-Acryloylpyrrolidin-3-yl)-4-oxo-5-(5-phenoxypyridin-2-yl)-4,5-dihydro-3H-1-thia-3,5,8-triazaacenaphthylene-2-carboxamide] the IC50 was 0.0316 µM.

Same assay, conditions: pIC50 = negative log of the IC50 in molar; 60 minutes incubation, 50 nM Tracer 236
For `Cc1cc(OC2CCCCC2)ccc1N1C(=O)Nc2c(C(=O)N[C@@H]3CCCN(C)C3)sc3nccc1c23` [Example 250, (R)-5-(4-(Cyclohexyloxy)-2-methylphenyl)-N-(1-methylpiperidin-3-yl)-4-oxo-4,5-dihydro-3H-1-thia-3,5,8-triazaacenaphthylene-2-carboxamide], the “BTK_I_binding pIC50” value was 6.4. `N#CCC(=O)N1CCC[C@@H](NC(=O)c2sc3nccc4c3c2NC(=O)N4c2ccc(Oc3ccccc3)cc2)C1` [Example 181, (R)—N-(1-(2-Cyanoacetyl)piperidin-3-yl)-4-oxo-5-(4-phenoxyphenyl)-4,5-dihydro-3H-1-thia-3,5,8-triazaacenaphthylene-2-carboxamide] was tested, and the “BTK_I_binding pIC50” value was 7.1. For `COCC(C)(C)C(=O)N1CCC[C@@H](NC(=O)c2sc3nccc4c3c2NC(=O)N4c2ccc(Oc3ccccc3)cc2C)C1` [Example 188, (R)—N-(1-(3-Methoxy-2,2-dimethylpropanol)piperidin-3-yl)-5-(2-methyl-4-phenoxyphenyl)-4-oxo-4,5-dihydro-3H-1-thia-3,5,8-triazaacenaphthylene-2-carboxamide], the “BTK_I_binding pIC50” value was 6.7. For `Cc1cc(Oc2ccccc2)ccc1N1C(=O)Nc2c(C(=O)N[C@@H]3CCCN(C(=O)CCO)C3)sc3nccc1c23` [Example 75, (R)—N-(1-(3-Hydroxypropanoyl)piperidin-3-yl)-5-(2-methyl-4-phenoxyphenyl)-4-oxo-4,5-dihydro-3H-1-thia-3,5,8-triazaacenaphthylene-2-carboxamide], the “BTK_I_binding pIC50” value was 7.2. `C=CC(=O)N1CCC[C@@H](NC(=O)c2sc3nccc4c3c2NC(=O)N4c2ccc(Oc3ccccc3)nn2)C1` [Example 121, (R)—N-(1-Acryloylpiperidin-3-yl)-4-oxo-5-(6-phenoxypyridazin-3-yl)-4,5-dihydro-3H-1-thia-3,5,8-triazaacenaphthylene-2-carboxamide] was tested, and the “BTK_I_binding pIC50” value was 6.7. For `COC[C@H](C)C(=O)N1CCC[C@@H](NC(=O)c2sc3nccc4c3c2NC(=O)N4c2ccc(Oc3ccccc3)cc2C)C1` [Example 156, N—((R)-1-((S)-3-Methoxy-2-methylpropanoyl)piperidin-3-yl)-5-(2-methyl-4-phenoxyphenyl)-4-oxo-4,5-dihydro-3H-1-thia-3,5,8-triazaacenaphthylene-2-carboxamide], the “BTK_I_binding pIC50” value was 7.1. For `CC#CC(=O)N1CCC[C@@H](NC(=O)c2sc3nccc4c3c2NC(=O)N4c2ccc(Oc3ccccc3)cc2C)C1` (single isomer, unassigned) [Example 55, (R)—N-(1-(But-2-ynoyl)piperidin-3-yl)-5-(*S)-(2-methyl-4-phenoxyphenyl)-4-oxo-4,5-dihydro-3H-1-thia-3,5,8-triazaacenaphthylene-2-carboxamide], the “BTK_I_binding pIC50” value was 7.4. `Cc1cc(Oc2ccccc2)ccc1N1C(=O)Nc2c(C(=O)NC3CC[C@@H](C)N(C)C3)sc3nccc1c23` (mixture of isomers) [Example 92, N-(1,6-Dimethylpiperidin-3-yl)-5-(2-methyl-4-phenoxyphenyl)-4-oxo-4,5-dihydro-3H-1-thia-3,5,8-triazaacenaphthylene-2-carboxamide] was tested, and the “BTK_I_binding pIC50” value was 6.8.

Same assay, conditions: unphosphorylated-BTK kinase domain, 50 nM Tracer 236, 60 minutes; pIC50 = negative log of the IC50 in molar
In the case of `Cc1cc(Oc2ccccc2)ccc1N1C(=O)Nc2c(C(=O)N[C@@H]3CCCN(C(=O)CN4CCOCC4)C3)sc3nccc1c23` [Example 394, (R)-5-(2-Methyl-4-phenoxyphenyl)-N-(1-(2-morpholinoacetyl)piperidin-3-yl)-4-oxo-4,5-dihydro-3H-1-thia-3,5,8-triazaacenaphthylene-2-carboxamide], the “BTK_I_binding pIC50” value is reported as 6.8. With `C=CC(=O)N1CC[C@@H](NC(=O)c2sc3nccc4c3c2NC(=O)N4c2ccc(C)cc2C)C1` [Example 304, (R)—N-(1-Acryloylpyrrolidin-3-yl)-5-(2,4-dimethylphenyl)-4-oxo-4,5-dihydro-3H-1-thia-3,5,8-triazaacenaphthylene-2-carboxamide] the “BTK_I_binding pIC50” value was 6.0. In the case of `Cc1cc(C(C)C)ccc1N1C(=O)Nc2c(C(=O)N[C@@H]3CCCN(C)C3)sc3nccc1c23` [Example 447, (R)-5-(4-Isopropyl-2-methylphenyl)-N-(1-methylpiperidin-3-yl)-4-oxo-4,5-dihydro-3H-1-thia-3,5,8-triazaacenaphthylene-2-carboxamide], the “BTK_I_binding pIC50” value is reported as 5.6. `Cc1cc(OC2CCCC2)ccc1N1C(=O)Nc2c(C(=O)N[C@@H]3CCCN(C)C3)sc3nccc1c23` [Example 297, (R)-5-(4-(Cyclopentyloxy)-2-methylphenyl)-N-(1-methylpiperidin-3-yl)-4-oxo-4,5-dihydro-3H-1-thia-3,5,8-triazaacenaphthylene-2-carboxamide] was tested, and the “BTK_I_binding pIC50” value was 6.1.

Same assay, conditions: unphosphorylated-BTK kinase domain, 60 minutes incubation, 50 nM Tracer 236; pIC50 = negative log of the IC50 in molar
With `CN1CC[C@@H](NC(=O)c2sc3nccc4c3c2NC(=O)N4c2ccc(Oc3ccccc3)cc2)C1` [Example 910, (R)—N-(1-Methylpyrrolidin-3-yl)-4-oxo-5-(4-phenoxyphenyl)-4,5-dihydro-3H-1-thia-3,5,8-triazaacenaphthylene-2-carboxamide] the “BTK_I_binding pIC50” value was 6.7. For `O=C(N[C@@H]1CCN(C(=O)c2ccccc2)C1)c1sc2nccc3c2c1NC(=O)N3c1ccc(Oc2ccccc2)cc1` [Example 914, (R)—N-(1-Benzoylpyrrolidin-3-yl)-4-oxo-5-(4-phenoxyphenyl)-4,5-dihydro-3H-1-thia-3,5,8-triazaacenaphthylene-2-carboxamide], the “BTK_I_binding pIC50” value was 6.5. `Cc1cc(Oc2ccccc2)ccc1N1C(=O)Nc2c(C(=O)N[C@H]3CCCN(C)C3)sc3nccc1c23` [Example 930, (S)-5-(2-methyl-4-phenoxyphenyl)-N-(1-methylpiperidin-3-yl)-4-oxo-4,5-dihydro-3H-1-thia-3,5,8-triazaacenaphthylene-2-carboxamide] was tested, and the “BTK_I_binding pIC50” value was 6.0. In the case of `C=CC(=O)N1CCC[C@@H](NC(=O)c2sc3nccc4c3c2NC(=O)N4c2cccc(N(C)C)c2)C1` [Example 943, (R)—N-(1-Acryloylpiperidin-3-yl)-5-(3-(dimethylamino)phenyl)-4-oxo-4,5-dihydro-3H-1-thia-3,5,8-triazaacenaphthylene-2-carboxamide], the “BTK_I_binding pIC50” value is reported as 5.6.
